This note sets out measurements from ChEMBL document CHEMBL1201862, “PubChem BioAssay data set” (2004).

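How tested: cells in 96-well plates exposed to compound for 48 hours at five concentrations. GI50 = concentration required for 50% inhibition of growth.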 Calls of active or inactive are those of the source. Rule as the data show it: active = GI50 up to about 1.1 µM and inactive = higher. Where only a bound is given, the exact number is not on record here.

Test systems include 786-0; A498; COLO 205; HCT-116; HCT-15; HT-29; OVCAR-4; SF-268; SF-295; SK-MEL-28; SK-MEL-2; SK-OV-3; SR; TK-10; UACC-62; RXF 393.
Experiment in all cases: NCI tumour cell line growth inhibition, 48 h

`COc1ccccc1NC(=O)CC(=O)NNCC(=O)Nc1nnc(-c2ccccc2)o1`: the GI50 in the assay on 786-0 was > 100 µM (inactive); in the assay on A498, > 100 µM (inactive); in the assay with COLO 205 it was > 100 µM (inactive); in the assay with HCT-116 it was > 100 µM (inactive); in the assay with HCT-15 it was more than 100 µM; in the assay on HT-29, > 100 µM (inactive). Besides, the GI50 in the assay with OVCAR-4, in the assay with SF-268, in the assay with SF-295, with SK-MEL-28, in the assay with SK-MEL-2 and in the assay on SK-OV-3 was > 100 µM (inactive) throughout. Also, the GI50 with SR, in the assay with TK-10 and in the assay on UACC-62 was > 100 µM (inactive) each time.

As for `O=C(/C=C1/NC(=O)CS1)Nc1ccccc1`, the GI50 in the assay with 786-0, with A498, in the assay on COLO 205, in the assay on HCT-116, in the assay on HT-29 and with OVCAR-4 was > 100 µM (inactive) in each case. In addition, the GI50 in the assay with RXF 393 is > 100 µM (inactive); in the assay on SF-268, > 100 µM (inactive); in the assay with SF-295 it was > 100 µM (inactive); with SK-MEL-28, > 100 µM (inactive); in the assay on SK-MEL-2 it was 89.5 µM (inactive); in the assay on SK-OV-3, > 100 µM (inactive). The GI50 in the assay with TK-10 and in the assay with UACC-62 was > 100 µM (inactive) throughout.

As to `CC(=O)NC(ON1C(=O)COc2ccccc21)C(Cl)(Cl)Cl` (stereo unspecified), the GI50 was > 100 µM (inactive) in the assay on 786-0; > 100 µM (inactive) in the assay with COLO 205; > 100 µM (inactive) in the assay with HCT-116; more than 100 µM with HCT-15; > 100 µM (inactive) in the assay on HT-29; > 100 µM (inactive) with OVCAR-4. The GI50 in the assay with SF-268, in the assay on SF-295, with SK-MEL-28, in the assay on SK-MEL-2, with SK-OV-3 and with SR was > 100 µM (inactive) each time. Further, the GI50 in the assay with TK-10 and in the assay with UACC-62 was > 100 µM (inactive) in each case.

As for `Nc1ccc(C(=O)N/C(=C\c2cccc([N+](=O)[O-])c2)c2nc3cc(Cl)ccc3[nH]2)cc1`, the GI50 was 92 µM (inactive) in the assay with 786-0; > 100 µM (inactive) with COLO 205; more than 100 µM with HCT-15; > 100 µM (inactive) in the assay on HT-29; 50.4 µM (inactive) in the assay on OVCAR-4; > 100 µM (inactive) with RXF 393. In addition, the GI50 is 97.7 µM (inactive) in the assay with SF-268; > 100 µM (inactive) in the assay on SF-295; > 100 µM (inactive) in the assay with SK-MEL-28; > 100 µM (inactive) in the assay with SK-MEL-2; > 100 µM (inactive) in the assay with SK-OV-3; > 100 µM (inactive) in the assay on SR. For the same molecule, the GI50 in the assay on TK-10 and in the assay with UACC-62 was > 100 µM (inactive) throughout.

For `C=CCN(N=O)C(=O)N(CCCC(NC(C)=O)C(=O)NCc1ccccc1)Cc1ccccc1` (stereo unspecified), the GI50 is 80.5 µM (inactive) in the assay with 786-0; 99.3 µM (inactive) with A498; 90.4 µM (inactive) in the assay on COLO 205; 73.8 µM in the assay on HCT-15; 24.2 µM (inactive) with HT-29; 36.1 µM (inactive) in the assay on OVCAR-4. Further, the GI50 in the assay on RXF 393 is 42.2 µM (inactive); in the assay with SF-268 it was 62.2 µM (inactive); in the assay with SF-295, 38.5 µM (inactive); in the assay on SK-MEL-28, 79.4 µM (inactive); in the assay on SK-MEL-2, > 100 µM (inactive); in the assay on SK-OV-3, > 100 µM (inactive). The GI50 is 87.1 µM (inactive) with TK-10 and 49.8 µM (inactive) in the assay with UACC-62.

In the case of `CCOc1ccc(/N=C/c2cccc3cccnc23)cc1`, the GI50 in the assay on 786-0 was > 100 µM (inactive); in the assay on A498, > 100 µM (inactive); in the assay on COLO 205 it was > 100 µM (inactive); in the assay on HCT-116, 43.8 µM (inactive); with HCT-15 it was 38.2 µM; in the assay with HT-29, > 100 µM (inactive). Also, the GI50 in the assay with OVCAR-4, in the assay on RXF 393, in the assay on SF-268, in the assay on SF-295, in the assay on SK-MEL-28 and with SK-MEL-2 was > 100 µM (inactive) in each case. The GI50 in the assay on SK-OV-3, with TK-10 and with UACC-62 was > 100 µM (inactive) in each case.

For the molecule `CCOc1ccc(NC(=O)CCC(=O)NN)cc1`, the GI50 in the assay on 786-0 is > 100 µM (inactive); with COLO 205, > 100 µM (inactive); in the assay on HCT-15 it was 68.7 µM; in the assay on HT-29, > 100 µM (inactive); in the assay on OVCAR-4, > 100 µM (inactive); with RXF 393 it was > 100 µM (inactive). For the same molecule, the GI50 in the assay with SF-268, in the assay with SF-295, in the assay with SK-MEL-28, in the assay with SK-MEL-2 and in the assay on TK-10 was > 100 µM (inactive) throughout.

On to `COc1ccc(NC(=O)NS(=O)(=O)c2ccc(C)cc2)nn1`, for which the GI50 in the assay with 786-0 is > 100 µM (inactive); in the assay on A498, > 100 µM (inactive); in the assay on COLO 205 it was > 100 µM (inactive); in the assay on HCT-15 it was more than 100 µM; with HT-29, > 100 µM (inactive); in the assay on OVCAR-4, > 100 µM (inactive). For the same molecule, the GI50 in the assay with SF-268, in the assay on SF-295, in the assay with SK-MEL-28, in the assay on SK-MEL-2, with SK-OV-3 and in the assay with TK-10 was > 100 µM (inactive) each time. Moreover, the GI50 in the assay on UACC-62 is > 100 µM (inactive).

For the molecule `COc1ccc(C(C#N)NNC(=O)Cc2ccccc2)cc1OC` (stereo unspecified), the GI50 in the assay on 786-0 was > 100 µM (inactive); with COLO 205, > 100 µM (inactive); with HCT-116, > 100 µM (inactive); in the assay on HCT-15, more than 100 µM; in the assay with HT-29 it was > 100 µM (inactive); in the assay on OVCAR-4, > 100 µM (inactive). Besides, the GI50 in the assay with RXF 393, with SF-268, with SF-295, in the assay with SK-MEL-28, in the assay on SK-MEL-2 and in the assay with SK-OV-3 was > 100 µM (inactive) in each case. For the same molecule, the GI50 in the assay with SR, in the assay on TK-10 and with UACC-62 was > 100 µM (inactive) throughout.

For `C=CCN(N=O)C(=O)N(CCC)CCCC(NC(C)=O)C(=O)NCc1ccccc1` (stereo unspecified), the GI50 in the assay with 786-0 is > 100 µM (inactive); in the assay on A498, > 100 µM (inactive); in the assay on COLO 205, > 100 µM (inactive); in the assay on HCT-15 it was more than 100 µM; in the assay with HT-29, > 100 µM (inactive); in the assay with OVCAR-4, > 100 µM (inactive). Further, the GI50 in the assay on RXF 393, with SF-268, with SF-295, in the assay with SK-MEL-28, in the assay with SK-MEL-2 and with SK-OV-3 was > 100 µM (inactive) each time. Also, the GI50 in the assay with TK-10 and with UACC-62 was > 100 µM (inactive) throughout.

As for `COC(=O)c1ccc(C(=O)OC)c2nc3cc(C)ccc3nc12`, the GI50 is > 100 µM (inactive) with 786-0; > 100 µM (inactive) with A498; > 100 µM (inactive) in the assay on COLO 205; more than 100 µM in the assay on HCT-15; > 100 µM (inactive) in the assay with HT-29; > 100 µM (inactive) in the assay on OVCAR-4. Besides, the GI50 with SF-268, in the assay with SF-295, in the assay with SK-MEL-28, in the assay with SK-MEL-2, in the assay with SK-OV-3 and in the assay on TK-10 was > 100 µM (inactive) throughout. Also, the GI50 in the assay on UACC-62 is > 100 µM (inactive).

Take `CC1CC(c2ccccc2)=Nc2ccccc2S1(=O)=O` (stereo unspecified): the GI50 in the assay with 786-0 is 17.2 µM (inactive); with A498, 14.8 µM (inactive); in the assay with COLO 205, 20.4 µM (inactive); with HCT-116, 1.75 µM (inactive); in the assay on HCT-15 it was 24.1 µM; in the assay with OVCAR-4 it was 19 µM (inactive). The GI50 in the assay on RXF 393 is 15.3 µM (inactive); in the assay on SF-268, 16.9 µM (inactive); in the assay with SF-295 it was 20.2 µM (inactive); with SK-MEL-28 it was 16.3 µM (inactive); in the assay on SK-MEL-2, 14.8 µM (inactive); with SK-OV-3, 19.7 µM (inactive). The GI50 in the assay with TK-10 is 23 µM (inactive); in the assay with UACC-62, 20.5 µM (inactive).

On to `CN(C)CCNC(=O)c1ccccc1Nc1c(Cl)cccc1Cl`, for which the GI50 in the assay on 786-0 was 4.62 µM (inactive); with COLO 205, 11.6 µM (inactive); with HCT-116, 7.93 µM (inactive); with HCT-15, 14.8 µM; in the assay on HT-29, 6.75 µM (inactive); in the assay on OVCAR-4 it was 14.6 µM (inactive). Moreover, the GI50 is 1.69 µM (inactive) in the assay on RXF 393; 16.2 µM (inactive) in the assay with SF-268; 14.8 µM (inactive) with SK-MEL-28; 13.7 µM (inactive) with SK-OV-3; 12.6 µM (inactive) in the assay on SR; 8.13 µM (inactive) in the assay with TK-10. Also, the GI50 in the assay on UACC-62 is 16.1 µM (inactive).

For the molecule `CCCCCC(=O)OCCOCCOCCOCCOCCOCc1ccccc1`, the GI50 was > 100 µM (inactive) in the assay on 786-0; > 100 µM (inactive) in the assay on A498; > 100 µM (inactive) in the assay with COLO 205; > 100 µM (inactive) with HCT-116; more than 100 µM in the assay with HCT-15; > 100 µM (inactive) with OVCAR-4. For the same molecule, the GI50 in the assay with RXF 393, in the assay with SF-268, in the assay on SF-295, with SK-MEL-28, in the assay on SK-MEL-2 and in the assay on TK-10 was > 100 µM (inactive) in each case. Moreover, the GI50 in the assay with UACC-62 is > 100 µM (inactive).

In the case of `c1ccc2c(c1)Sc1ccccc1N2C1CN2CCC1CC2` (stereo unspecified), the GI50 was 13 µM (inactive) in the assay with 786-0; 8.36 µM (inactive) in the assay with A498; 16.8 µM (inactive) with COLO 205; 15.5 µM (inactive) in the assay on HCT-116; 16.8 µM in the assay on HCT-15; 17.3 µM (inactive) in the assay on HT-29. The GI50 in the assay on OVCAR-4 was 17.7 µM (inactive); in the assay with SF-268 it was 16.4 µM (inactive); in the assay on SF-295 it was 15.3 µM (inactive); in the assay with SK-MEL-28, 15.8 µM (inactive); with SK-MEL-2, 4.46 µM (inactive); with SK-OV-3 it was 19.5 µM (inactive). In addition, the GI50 in the assay on TK-10 was 14 µM (inactive); with UACC-62 it was 15.2 µM (inactive).
